Source: US8815919B2, “Oxadiazole derivatives” (Merck Serono SA, priority 2009, dated 2014)
Structures can show the parent of a compound that is named as a salt. Where two headings read alike, the source gives them in different places.

Key:
[1] = biological target: T1, S1P1 (Homo sapiens, UniProt P21453); test: 35S-GTPγS binding on membranes of CHO cells expressing S1P1; assay type: biochemical; conditions: read-out: S1P1/GTPG EC50
Experimental: (§1) Membranes were prepared from CHO cells expressing S1P1 or S1P3 for use in ligand and […] binding studies. Cells were suspended in 50 mM TRIS, pH 7.4, 2 mM EDTA, 250 mM Sucrose (buffer A) and 1× Complete protease inhibitor cocktail (Roche), and disrupted at 4° C. by N2 decompression using a cell disruption bomb (Parr Instrument). Following centrifugation at 1000 RPM for 10 min at 4° C., the supernatant was diluted (2×) in buffer A and centrifuged again at 19000 RPM for 75 min at 4° C. The pellet was then suspended in 10 mM HEPES, pH 7.4, 1 mM EDTA, 250 mM Sucrose (Buffer B), and 1× Complete EDTA-free protease inhibitor cocktail and homogenized using a potter. Membranes were flash frozen in liquid N2 and stored at −80° C.
(§2) Membranes (1 to 10 μg protein) prepared as described above, were incubated in 96-well Scintiplates (PerkinElmer) with test compounds diluted in DMSO, in 140 μl of 20 mM HEPES, pH 7.4, 10 mM MgCl2, 2 μg/well Saponin, 0.2% fatty acid free BSA (Assay buffer), 125 mM NaCl and 1.5 μM GDP. The assay was initiated with the addition of 60 μl of 1.5 nM [35S]-GTPγS (1100 Ci/mmol; GE Healthcare) in assay buffer. After 60 min incubation at 30° C. on a shaker, plates were centrifuged for 10 min at 2000 RPM. Supernatant was discarded and membrane bound radioactivity was measured on a PerkinElmer 1450 MicroBeta counter. Triplicate samples were averaged and expressed as % response relative to S1P activation in absence of compound (n=2).
(§3) The “potency” or the “activity” of the compounds is determined by the EC50 values as evaluated in the above described 35S-GTPγS binding assay.
Target sequence in this assay (P21453 whole entry, species assumed): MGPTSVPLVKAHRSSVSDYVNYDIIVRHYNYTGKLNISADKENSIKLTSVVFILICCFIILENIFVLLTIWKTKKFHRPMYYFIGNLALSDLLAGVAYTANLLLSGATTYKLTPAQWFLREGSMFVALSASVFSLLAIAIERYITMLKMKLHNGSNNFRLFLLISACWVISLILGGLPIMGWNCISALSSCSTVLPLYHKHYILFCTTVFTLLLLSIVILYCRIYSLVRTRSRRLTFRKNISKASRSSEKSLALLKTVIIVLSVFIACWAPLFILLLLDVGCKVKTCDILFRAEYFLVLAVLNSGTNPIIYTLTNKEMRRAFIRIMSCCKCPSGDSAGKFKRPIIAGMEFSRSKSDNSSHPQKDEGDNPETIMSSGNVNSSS

[2] = biological target: T2, S1P3 (Homo sapiens, UniProt Q99500); test: 35S-GTPγS binding on membranes of CHO cells expressing S1P3; assay type: biochemical; conditions: read-out: S1P3/GTPG EC50
Experimental: as §1, §2, §3

[3] = biological target: T1, S1P1; test: Receptor binding assay, [33P]sphingosine 1-phosphate competition, S1P1 membranes, WGA SPA beads
In short: (§4)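 Competition of [33P]S1P ([…]) on CHO cell membranes with WGA SPA beads in 50 mM HEPES pH 7.5, 5 mM MgCl2, 100 mM NaCl, 0.4% fatty acid-free BSA; 60 min at RT. Triplicates normalised to total binding and nonspecific binding (1000-fold excess unlabeled S1P).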
Target sequence in this assay (P21453 whole entry, species assumed): as above

[4] = biological target: T1, S1P1; test: S1P1 internalization assay in S1P1-U2OS cells (S1P1-EGFP), cell imaging; assay type: cell-based; parameters: host or cells: U2OS (human bone osteosarcoma epithelial cells), CMV promoter, geneticin selection; conditions: 1 hour incubation
In short: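 U2OS cells stably expressing human S1P1-EGFP, plated overnight in 1% FCS medium, then serum-starved 2 h in 0.1% fatty-acid-free BSA before 1 h compound exposure at 37 °C. After PFA fixation and Hoechst staining, internalization imaged as EGFP spot count per nucleus.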
Target sequence in this assay (P21453 whole entry): as the sequence (P21453 whole entry, species assumed) above

[5] = biological target: T2, S1P3; test: Receptor binding assay, [33P]sphingosine 1-phosphate competition, S1P3 membranes, WGA SPA beads
In short: as §4

[6] = 96 well-plate, read-out: S1P1 binding Ki (M) (96 well-plate)
[7] = 384 well-plate, read-out: S1P3 binding Ki (M) (384 well-plate)

T2 sequence (Q99500 whole entry, species assumed): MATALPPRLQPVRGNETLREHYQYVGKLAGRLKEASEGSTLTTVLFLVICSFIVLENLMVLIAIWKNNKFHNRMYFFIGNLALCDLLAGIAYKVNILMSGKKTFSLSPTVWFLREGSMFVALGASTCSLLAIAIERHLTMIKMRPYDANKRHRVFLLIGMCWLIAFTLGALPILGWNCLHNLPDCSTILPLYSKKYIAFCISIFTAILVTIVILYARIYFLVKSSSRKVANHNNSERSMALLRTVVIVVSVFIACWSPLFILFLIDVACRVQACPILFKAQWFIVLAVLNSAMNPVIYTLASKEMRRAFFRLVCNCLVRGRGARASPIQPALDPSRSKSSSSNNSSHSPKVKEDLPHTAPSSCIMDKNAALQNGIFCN

| Structure (SMILES) | EC50 [1] | EC50 [2] | Ki [3, 6] | EC50 [4] | Ki [5, 7] | Ki ([3]; 384 well-plate, read-out: S1P1 binding Ki (M) (384 well-plate)) | Ki ([5]; 96 well-plate, read-out: S1P3 binding Ki (M) (96 well-plate)) |
| --- | --- | --- | --- | --- | --- | --- | --- |
| COCc1cc(-c2nc(-c3cccc(CN(C)CCC(=O)O)c3)no2)ccc1N1CCCCC1C (stereo not drawn) [Example 2, N-(3-{5-[3-(methoxymethyl)-4-(2-methylpiperidin-1-yl)phenyl]-1,2,4-oxadiazol-3-yl}benzyl)-N-methyl-beta-alanine, hydrochloride salt] | 0.287 nM | 44.8 nM | 1.36e-10 M | – | – | – | – |
| COCc1cc(-c2nc(-c3ccc(C(=O)NCCC(=O)O)c(F)c3)no2)ccc1N1CCCCC1C (stereo not drawn) [Example 3, N-(2-fluoro-4-{5-[3-(methoxymethyl)-4-(2-methylpiperidin-1-yl)phenyl]-1,2,4-oxadiazol-3-yl}benzoyl)-beta-alanine] | 8.43 nM | – | 8.32e-10 M | 7.76 nM | – | – | – |
| COCc1cc(-c2nc(-c3cccc(COCC(=O)O)c3)no2)ccc1N1CCCCC1C (stereo not drawn) [Example 4, [(3-{5-[3-(methoxymethyl)-4-(2-methylpiperidin-1-yl)phenyl]-1,2,4-oxadiazol-3-yl}benzyl)oxy]acetic acid, hydrochloride salt] | 1.05 nM | 313 nM | 4.76e-10 M | – | 7.53e-07 M | – | – |
| COCc1cc(-c2nc(-c3cc(F)c(F)c(OCCCC(=O)O)c3)no2)ccc1-c1ccccc1C [Example 5, 4-(2,3-difluoro-5-{5-[2-(methoxymethyl)-2′-methylbiphenyl-4-yl]-1,2,4-oxadiazol-3-yl}phenoxy)butanoic acid] | 22.7 nM | – | 4.09e-09 M | 157 nM | – | 1.45e-08 M | – |
| COCc1cc(-c2nc(-c3cccc(S(C)(=O)=O)c3)no2)ccc1N1CCCCC1C (stereo not drawn) [Example 6, 1-(2-(methoxymethyl)-4-{3-[3-(methylsulfonyl)phenyl]-1,2,4-oxadiazol-5-yl}phenyl)-2-methylpiperidine, hydrochloride salt] | 1.9 nM | 2280 nM | 1.24e-09 M | 4.39 nM | – | – | – |
| COCc1cc(-c2nc(-c3cccc(COCCC(=O)O)c3)no2)ccc1-c1ccccc1C [Example 7, 3-[(3-{5-[2-(methoxymethyl)-2′-methylbiphenyl-4-yl]-1,2,4-oxadiazol-3-yl}benzyl)oxy]propanoic acid] | 8.05 nM | 2010 nM | 3.29e-09 M | 25.5 nM | – | – | – |
| Cc1ccccc1-c1ccc(-c2nc(-c3cccc(S(C)(=O)=O)c3)no2)cc1CN(C)C [Example 8, N,N-dimethyl-1-(2′-methyl-4-{3-[3-(methylsulfonyl)phenyl]-1,2,4-oxadiazol-5-yl}biphenyl-2-yl)methanamine] | 11.7 nM | – | – | – | – | – | – |
| COCc1cc(-c2nc(-c3cccc(COCCC(=O)O)c3)no2)ccc1N1CCCCC1C (stereo not drawn) [Example 9, 3-[4(3-{5-[3-(methoxymethyl)-4-(2-methylpiperidin-1-yl)phenyl]-1,2,4-oxadiazol-3-yl}benzyl)oxy]propanoic acid, hydrochloride salt] | 3.85 nM | – | 8.04e-10 M | – | – | – | – |
| COCc1cc(-c2nc(-c3cccc(CN(C)CC(=O)O)c3)no2)ccc1-c1ccccc1F [Example 10, N-(3-{5-[2′-fluoro-2-(methoxymethyl)biphenyl-4-yl]-1,2,4-oxadiazol-3-yl}benzyl)-N-methylolycine, hydrochloride salt] | 0.907 nM | 130 nM | 1.79e-10 M | 3.31 nM | 1.22e-07 M | – | 2.33e-08 M |
| COCc1cc(-c2nc(-c3cccc(CN(C)CC(=O)O)c3)no2)ccc1-c1ccccc1Cl [Example 11, N-(3-{5-[2′-chloro-2-(methoxymethyl)biphenyl-4-yl]-1,2,4-oxadiazol-3-yl}benzyl)-N-methylglycine, hydrochloride salt] | 2.74 nM | 673 nM | 6.21e-10 M | 10.6 nM | – | – | – |
| CC1CCCCN1c1ccc(-c2nc(-c3cccc(COCCC(=O)O)c3)no2)cc1C(F)(F)F (stereo not drawn) [Example 12, 3-[(3-{5-[4-(2-methylpiperidin-1-yl)-3-(trifluoromethyl)phenyl]-1,2,4-oxadiazol-3-yl}benzyl)oxy]propanoic acid, hydrochloride salt] | 4.61 nM | 692 nM | 3.08e-09 M | 9.84 nM | – | – | – |
| COCc1cc(-c2nc(-c3ccc(C(=O)NCCC(=O)O)c(Cl)c3)no2)ccc1-c1ccccc1C [Example 15, N-(2-chloro-4-{5-[2-(methoxymethyl)-2′-methylbiphenyl-4-yl]-1,2,4-oxadiazol-3-yl}benzoyl)-beta-alanine] | 20.9 nM | 553 nM | 1.06e-09 M | – | – | – | – |
| CCc1ccccc1-c1ccc(-c2nc(-c3ccc(C(=O)NCCC(=O)O)c(F)c3)no2)cc1COC [Example 16, N-(4-{5-[2′-ethyl-2-(methoxymethyl)biphenyl-4-yl]-1,2,4-oxadiazol-3-yl}-2-fluorobenzoyl)-beta-alanine] | 6.07 nM | 531 nM | 2.22e-09 M | – | – | – | – |
| CCC1CCCCN1c1ccc(-c2nc(-c3cccc(CN(C)CC(=O)O)c3)no2)cc1COC (stereo not drawn) [Example 17, N-(3-{5-[4-(2-ethylpiperidin-1-yl)-3-(methoxymethyl)phenyl]-1,2,4-oxadiazol-3-yl}benzyl)-N-methylglycine, hydrochloride salt] | 1.41 nM | 255 nM | 4.46e-10 M | – | – | – | – |
| CCc1ccccc1-c1ccc(-c2nc(-c3cccc(CNCCC(=O)O)c3)no2)cc1COC [Example 18, N-(3-{5-[2′-ethyl-2-(methoxymethyl)biphenyl-4-yl]-1,2,4-oxadiazol-3-yl}benzyl)-beta-alanine, hydrochloride salt] | 0.47 nM | 4.96 nM | 1.68e-10 M | – | – | – | – |
| COCc1cc(-c2nc(-c3ccc(F)c(CN(C)CCC(=O)O)c3)no2)ccc1N1CCCCC1C (stereo not drawn) [Example 19, N-(2-fluoro-5-{5-[3-(methoxymethyl)-4-(2-methylpiperidin-1-yl)phenyl]-1,2,4-oxadiazol-3-yl}benzyl)-N-methyl-beta-alanine, dihydrochloride salt] | 0.545 nM | 34.4 nM | 1.94e-10 M | – | – | – | – |
| COCc1cc(-c2nc(-c3cccc(NCC(O)CO)c3)no2)ccc1-c1ccccc1C (stereo not drawn) [Example 22, 3-[(3-{5-[2-(methoxymethyl)-2′-methylbiphenyl-4-yl]-1,2,4-oxadiazol-3-yl}phenyl)amino]propane-1,2-diol] | – | 293 nM | 7.11e-10 M | – | – | – | – |
| COCc1cc(-c2nc(-c3ccc(OCCO)cc3)no2)ccc1-c1ccccc1C [Example 23, 2-(4-{5-[2-(methoxymethyl)-2′-methylbiphenyl-4-yl]-1,2,4-oxadiazol-3-yl}phenoxy)ethanol] | 7.07 nM | 199 nM | 2.17e-09 M | – | – | – | – |
| COCc1cc(-c2nc(-c3cccc(CC(=O)NCC(=O)OC)c3)no2)ccc1-c1ccccc1C [Example 24, methyl N-[(3-{5-[2-(methoxymethyl)-2′-methylbiphenyl-4-yl]-1,2,4-oxadiazol-3-yl}phenyl)acetyl]glycinate] | 2.11 nM | – | 9.12e-10 M | – | – | – | – |
| COCc1cc(-c2nc(-c3cccc(CC(=O)NCCNC(C)=O)c3)no2)ccc1-c1ccccc1C [Example 25, N-[2-(acetylamino)ethyl]-2-(3-{5-[2-(methoxymethyl)-2′-methylbiphenyl-4-yl]-1,2,4-oxadiazol-3-yl}phenyl)acetamide] | 7.08 nM | 635 nM | 8.51e-10 M | – | – | – | – |
| COCc1cc(-c2nc(-c3cccc(CC(=O)NCC(=O)O)c3)no2)ccc1-c1ccccc1C [Example 26, N-[(3-{5-[2-(methoxymethyl)-2′-methylbiphenyl-4-yl]-1,2,4-oxadiazol-3-yl}phenyl)acetyl]glycine] | 10.7 nM | – | – | – | – | – | – |
| COCc1cc(-c2nc(-c3ccc(C(=O)NCC(O)CO)c(F)c3)no2)ccc1-c1ccccc1C (stereo not drawn) [Example 27, N-(2,3-dihydroxypropyl)-2-fluoro-4-{5-[2-(methoxymethyl)-2′-methylbiphenyl-4-yl]-1,2,4-oxadiazol-3-yl}benzamide] | 17.8 nM | – | – | – | – | – | – |
